# According to ChEMBL document CHEMBL6134813, “Arctigenin derivative TZOA restores mitochondrial homeostasis to combat rhabdovirus infections” (Eur J Med Chem, 2025):
# The source made the active and inactive calls. No cut-off for these calls is given here.
# Experiments:
# [1] = tested on: Infectious hematopoietic necrosis virus; assay: Antiviral activity against IHNV infected in EPC cells (unknown origin) assessed as inhibition of viral M gene expression at 25 uM measured after 72 hrs by RT-qPCR analysis relative to control; type: functional
# [2] = tested on: Infectious hematopoietic necrosis virus; assay: Antiviral activity against IHNV infected in EPC cells (unknown origin) assessed as inhibition of viral G gene expression at 25 uM measured after 72 hrs by RT-qPCR analysis relative to control; type: functional
# [3] = tested on: Infectious hematopoietic necrosis virus; assay: Antiviral activity against IHNV infected in juvenile rainbow trout assessed as decrease in viral G gene expression in spleen of recipient fishes on horizontal transmission between virus-infected donor fishes and non-infected recipient fishes at 25 uM immersed together in compound for 48 hrs by qPCR analysis; type: functional, organism-based
# [4] = tested on: Infectious hematopoietic necrosis virus; assay: Antiviral activity against IHNV infected in EPC cells (unknown origin) assessed as viral titer measured per 0.1 ml incubated for 72 hrs by Reed-Muench method (reference value: 1 10^6.74TCID50); type: functional
# [5] = tested on: Infectious hematopoietic necrosis virus; assay: Antiviral activity against IHNV infected in EPC cells (unknown origin) assessed as viral titer measured per 0.1 ml incubated for 96 hrs by Reed-Muench method (reference value: 1 10^7.77TCID50); type: functional
# [6] = tested on: Infectious hematopoietic necrosis virus; assay: Antiviral activity against IHNV infected in juvenile rainbow trout assessed as increase in Mx1 gene expression in kidney administered intraperitoneally measured after 2 days by RT-qPCR analysis; type: functional, organism-based; conditions: route ip, time 2.0 day
# [7] = tested on: Infectious hematopoietic necrosis virus; assay: Antiviral activity against IHNV infected in EPC cells (unknown origin) assessed as reduction in viral G protein expression at 25 uM pretreated virus with compound for 1 hr followed by compound-treated virus infection in EPC cells measured after 72 hrs by RT-qPCR analysis relative to control; type: functional; design: scale not given: the % may be the effect or the level left
# [8] = tested on: Infectious hematopoietic necrosis virus; assay: Antiviral activity against IHNV infected in juvenile rainbow trout assessed as increase in ISG15 gene expression in kidney administered intraperitoneally measured after 2 days by RT-qPCR analysis; type: functional, organism-based; conditions: route ip, time 2.0 day
# [9] = tested on: Infectious hematopoietic necrosis virus; assay: Antiviral activity against IHNV infected in EPC cells (unknown origin) assessed as smooth outer membrane in mitochondria by TEM analysis; type: functional, organism-based
# [10] = tested on: Infectious hematopoietic necrosis virus; assay: Antiviral activity against IHNV infected in EPC cells (unknown origin) assessed as reduction in cytopathic effect at >4 uM measured after 72 hrs by RT-qPCR analysis; type: functional, organism-based
# [11] = tested on: Infectious hematopoietic necrosis virus; assay: Antiviral activity against IHNV infected in EPC cells (unknown origin) assessed as dense monolayer arrangement in host cells at 25 uM pretreated virus with compound for 4 hrs followed by compound-treated virus infection in EPC cells measured after 72 hrs by microscopic analysis; type: functional, organism-based
# [12] = tested on: Infectious hematopoietic necrosis virus; assay: Antiviral activity against IHNV infected in EPC cells (unknown origin) assessed as increase in cell proliferation at 4 uM measured after 72 hrs by CCK8 assay relative to control; type: functional
# [13] = tested on: Infectious hematopoietic necrosis virus; assay: Antiviral activity against IHNV infected in EPC cells (unknown origin) assessed as inhibition of viral replication at 25 uM pre-infected with virus for 6 hrs followed by compound addition measured after 72 hrs by RT-qPCR analysis relative to control; type: functional
# [14] = tested on: Infectious hematopoietic necrosis virus; assay: Antiviral activity against IHNV infected in EPC cells (unknown origin) assessed as reduction in virus-induced mitochondrial-lysosomal contact at 25 uM incubated for 72 hrs by Mito-Tracker/Lyso-Tracker dye based analysis; type: functional, organism-based
# [15] = tested on: Infectious hematopoietic necrosis virus; assay: Antiviral activity against IHNV infected in EPC cells (unknown origin) assessed as cristae of varying lengths with attached granules in inner membrane of mitochondria by TEM analysis; type: functional, organism-based
# [16] = tested on: Infectious hematopoietic necrosis virus; assay: Antiviral activity against IHNV infected in juvenile rainbow trout assessed as decrease in viral titer in recipient fishes on horizontal transmission between virus-infected donor fishes and non-infected recipient fishes at 25 uM immersed together in compound for 48 hrs; type: functional, organism-based
# [17] = tested on: Infectious hematopoietic necrosis virus; assay: Antiviral activity against IHNV infected in juvenile rainbow trout assessed as decrease in hemorrhage in kidney administered intraperitoneally measured after 2 days by H and E staining based analysis; type: functional, organism-based; conditions: route ip, time 2.0 day
# [18] = tested on: Infectious hematopoietic necrosis virus; assay: Antiviral activity against IHNV infected in EPC cells (unknown origin) assessed as inhibition of viral M gene expression measured after 72 hrs by RT-qPCR analysis; type: functional, organism-based; conditions: dose 0.1-100 µM
# [19] = tested on: Infectious hematopoietic necrosis virus; assay: Antiviral activity against IHNV infected in juvenile rainbow trout assessed as increase in IRF3 gene expression in kidney administered intraperitoneally measured after 2 days by RT-qPCR analysis; type: functional, organism-based; conditions: route ip, time 2.0 day
# [20] = tested on: Infectious hematopoietic necrosis virus; assay: Antiviral activity against IHNV infected in juvenile rainbow trout assessed as increase in IFN-1 gene expression in spleen administered intraperitoneally measured after 2 days by RT-qPCR analysis; type: functional, organism-based; conditions: route ip, time 2.0 day
# [21] = tested on: Infectious hematopoietic necrosis virus; assay: Antiviral activity against IHNV infected in juvenile rainbow trout assessed as decrease in viral G gene expression in kidney administered intraperitoneally measured after 1 to 4 days by RT-qPCR analysis; type: functional, organism-based; conditions: route ip, time 1-4 day
# [22] = tested on: Infectious hematopoietic necrosis virus; assay: Antiviral activity against IHNV infected in juvenile rainbow trout assessed as decrease in erythrocytes in kidney administered intraperitoneally measured after 2 days by H and E staining based analysis; type: functional, organism-based; conditions: route ip, time 2.0 day
# [23] = tested on: Infectious hematopoietic necrosis virus; assay: Antiviral activity against IHNV infected in EPC cells (unknown origin) assessed as viral titer measured per 0.1 ml incubated for 48 hrs by Reed-Muench method (reference value: 1 10^5.75TCID50); type: functional
# [24] = tested on: Infectious hematopoietic necrosis virus; assay: Antiviral activity against IHNV infected in juvenile rainbow trout assessed as increase in IFN-1 gene expression in kidney administered intraperitoneally measured after 2 days by RT-qPCR analysis; type: functional, organism-based; conditions: route ip, time 2.0 day
# [25] = tested on: Infectious hematopoietic necrosis virus; assay: Antiviral activity against IHNV infected in EPC cells (unknown origin) assessed as mtDNA intact with mitochondria at 25 uM incubated for 72 hrs by TOMM20 dye based analysis; type: functional, organism-based
# [26] = tested on: Infectious hematopoietic necrosis virus; assay: Antiviral activity against IHNV infected in EPC cells (unknown origin) assessed as decrease in virus-induced number of individual mitochondria per cell at 25 uM incubated for 72 hrs by Mito-Tracker dye based analysis; type: functional, organism-based
# [27] = tested on: Infectious hematopoietic necrosis virus; assay: Antiviral activity against IHNV infected in EPC cells (unknown origin) assessed as reduction in cytopathic effect at 25 uM pretreated virus with compound for 1 to 2 hrs followed by compound-treated virus infection in EPC cells measured after 72 hrs by RT-qPCR analysis; type: functional, organism-based; conditions: time 1-2 hrs
# [28] = tested on: Infectious hematopoietic necrosis virus; assay: Antiviral activity against IHNV infected in EPC cells (unknown origin) assessed as uniform sized nuclei at 25 uM measured after 72 hrs by fluorescence microscopy; type: functional, organism-based
# [29] = tested on: Infectious hematopoietic necrosis virus; assay: Antiviral activity against IHNV infected in EPC cells (unknown origin) assessed as uniform shaped nuclei at 25 uM measured after 72 hrs by fluorescence microscopy; type: functional, organism-based
# [30] = tested on: Infectious hematopoietic necrosis virus; assay: Antiviral activity against IHNV infected in EPC cells (unknown origin) assessed as reduction in viral G protein expression at 25 uM pretreated virus with compound for 2 hrs followed by compound-treated virus infection in EPC cells measured after 72 hrs by RT-qPCR analysis relative to control; type: functional; design: scale not given: the % may be the effect or the level left
smiles,measurement,setting,value
COc1ccc(C[C@H]2COC(=O)[C@@H]2Cc2ccc(OCCCCCCCCn3cncn3)c(OC)c2)cc1OC,inhibition at 25 µM,[1],> 90%
same,inhibition at 25 µM,[2],> 90%
same,Activity,[3],Active
same,Activity,[4],1 10^4.73TCID50
same,Activity,[5],1 10^5.48TCID50
same,Activity,[6],Active
same,Activity,[7],10%
same,Activity,[8],Active
same,Activity,[9],Active
same,Activity,[10],Active
same,Activity,[11],Active
same,Activity,[12],>50%
same,inhibition at 25 µM,[13],80%
same,Activity,[14],Active
same,Activity,[15],Active
same,Activity,[16],Active
same,Activity,[17],Active
same,inhibition,[18],Dose-dependent-effect
same,Activity,[19],Active
same,Activity,[20],Active
same,Activity,[21],Active
same,Activity,[22],Active
same,Activity,[23],1 10^2.45TCID50
same,Activity,[24],Active
same,Activity,[25],Active
same,Activity,[26],Active
same,Activity,[27],Active
same,Activity,[28],Active
same,Activity,[29],Active
same,Activity,[30],24%
